Laboratory results: PubChem BioAssay AID1259407 (Chemical Carcinogenesis Research Information System (CCRIS), 2018)
Activity calls are given as the source filed them. How the calls were made is not given here.

System: CCRIS mutagenicity, Ames/micronucleus/aberration tests
Assay: CCRIS mutagenicity studies
[1] = Test System: AMES SALMONELLA TYPHIMURIUM, Strain/Indicator: TA98, Metabolic Activation: NONE, Method: PREINCUBATION
[2] = Test System: AMES SALMONELLA TYPHIMURIUM, Strain/Indicator: TA100, Metabolic Activation: NONE, Method: PREINCUBATION
[3] = Test System: AMES SALMONELLA TYPHIMURIUM, Strain/Indicator: TA1535, Metabolic Activation: NONE, Method: PREINCUBATION
[4] = Test System: AMES SALMONELLA TYPHIMURIUM, Strain/Indicator: TA1537, Metabolic Activation: NONE, Method: PREINCUBATION
[5] = Test System: E.COLI, Strain/Indicator: WP2 UVRA, Metabolic Activation: NONE, Method: PREINCUBATION
[6] = Test System: AMES SALMONELLA TYPHIMURIUM, Strain/Indicator: TA98, Metabolic Activation: HAMSTER, LIVER, S-9, AROCLOR 1254 (10%), Method: PREINCUBATION
[7] = Test System: AMES SALMONELLA TYPHIMURIUM, Strain/Indicator: TA98, Metabolic Activation: RAT, LIVER, S-9, AROCLOR 1254 (10%), Method: PREINCUBATION
[8] = Test System: AMES SALMONELLA TYPHIMURIUM, Strain/Indicator: TA100, Metabolic Activation: HAMSTER, LIVER, S-9, AROCLOR 1254 (10%), Method: PREINCUBATION
[9] = Test System: AMES SALMONELLA TYPHIMURIUM, Strain/Indicator: TA100, Metabolic Activation: RAT, LIVER, S-9, AROCLOR 1254 (10%), Method: PREINCUBATION
[10] = Test System: AMES SALMONELLA TYPHIMURIUM, Strain/Indicator: TA1535, Metabolic Activation: HAMSTER, LIVER, S-9, AROCLOR 1254 (10%), Method: PREINCUBATION
[11] = Test System: AMES SALMONELLA TYPHIMURIUM, Strain/Indicator: TA1535, Metabolic Activation: RAT, LIVER, S-9, AROCLOR 1254 (10%), Method: PREINCUBATION

Structure (SMILES): CO[C@@H]1C[C@](C)(O)Cc2cc3c(c(O)c21)C(=O)c1c(O)cc2c(c1C3=O)O[C@@H]1O[C@@]2(C)[C@H](O)[C@@H](N(C)C)[C@@H]1O
- mutagenic call [1]: inactive; negative
- mutagenic call (Test System: AMES SALMONELLA TYPHIMURIUM, Strain/Indicator: TA98, Metabolic Activation: RAT LIVER S-9, Method: PREINCUBATION): active; positive
- mutagenic call [2]: inactive; negative
- mutagenic call (Test System: AMES SALMONELLA TYPHIMURIUM, Strain/Indicator: TA100, Metabolic Activation: RAT LIVER S-9, Method: PREINCUBATION): active; positive
- mutagenic call [3]: inactive; negative
- mutagenic call (Test System: AMES SALMONELLA TYPHIMURIUM, Strain/Indicator: TA1535, Metabolic Activation: RAT LIVER S-9, Method: PREINCUBATION): inactive; negative
- mutagenic call [4]: inactive; negative
- mutagenic call (Test System: AMES SALMONELLA TYPHIMURIUM, Strain/Indicator: TA1537, Metabolic Activation: RAT LIVER S-9, Method: PREINCUBATION): active; positive
- mutagenic call [5]: inactive; negative
- mutagenic call (Test System: E.COLI, Strain/Indicator: WP2 UVRA, Metabolic Activation: RAT LIVER S-9, Method: PREINCUBATION): inactive; negative

Structure (SMILES): CCCCOC(=O)c1ccccc1C(=O)OC1CCCCC1
- mutagenic call [6]: inactive; negative
- mutagenic call [1]: inactive; negative
- mutagenic call [7]: inactive; negative
- mutagenic call [8]: inactive; negative
- mutagenic call [2]: inactive; negative
- mutagenic call [9]: inactive; negative
- mutagenic call [10]: inactive; negative
- mutagenic call [3]: inactive; negative
- mutagenic call [11]: inactive; negative
- mutagenic call (Test System: AMES SALMONELLA TYPHIMURIUM, Strain/Indicator: TA1537, Metabolic Activation: HAMSTER, LIVER, S-9, AROCLOR 1254 (10%), Method: PREINCUBATION): inactive; negative
- mutagenic call [4]: inactive; negative
- mutagenic call (Test System: AMES SALMONELLA TYPHIMURIUM, Strain/Indicator: TA1537, Metabolic Activation: RAT, LIVER, S-9, AROCLOR 1254 (10%), Method: PREINCUBATION): inactive; negative

Structure (SMILES): C1CC2(CCO1)CO2
- mutagenic call (Test System: AMES SALMONELLA TYPHIMURIUM, Strain/Indicator: TA100, Metabolic Activation: STANDARD PLATE): active; positive

Structure (SMILES): O=c1c2c(c3c(ccc4cc5c(ccc6ccccc65)[nH]c43)c1O)O2
- mutagenic call (Test System: AMES SALMONELLA TYPHIMURIUM, Strain/Indicator: TA98, Metabolic Activation: RAT, LIVER, AROCLOR 1254, NADPH GENERATING SYSTEM, Method: STANDARD PLATE): active; positive
- mutagenic call (Test System: AMES SALMONELLA TYPHIMURIUM, Strain/Indicator: TA100, Metabolic Activation: RAT, LIVER, AROCLOR 1254, NADPH GENERATING SYSTEM, Method: STANDARD PLATE): active; positive
- mutagenic call (Test System: CHINESE HAMSTER V-79, Strain/Indicator: V-79/8-AZAGUANINE, Method: STANDARD PLATE): active; positive

Structure (SMILES): CC(=O)Nc1nnc(-c2ccc([N+](=O)[O-])o2)s1
- mutagenic call (Test System: AMES SALMONELLA TYPHIMURIUM, Strain/Indicator: TA100, Metabolic Activation: RAT, LIVER, S-9, KC500 OR PHENOBARBITAL, Method: LIQUID SUSPENSION): active; positive

Structure (SMILES): O=Cc1c(Cl)cccc1Cl
- mutagenic call (Test System: AMES SALMONELLA TYPHIMURIUM, Strain/Indicator: TA97, Metabolic Activation: HAMSTER, LIVER, S-9, AROCLOR 1254 (10%), Method: PREINCUBATION): inactive; negative
- mutagenic call (Test System: AMES SALMONELLA TYPHIMURIUM, Strain/Indicator: TA97, Metabolic Activation: HAMSTER, LIVER, S-9, AROCLOR 1254 (30%), Method: PREINCUBATION): inactive; negative
- mutagenic call (Test System: AMES SALMONELLA TYPHIMURIUM, Strain/Indicator: TA97, Metabolic Activation: NONE, Method: PREINCUBATION): inactive; negative
- mutagenic call (Test System: AMES SALMONELLA TYPHIMURIUM, Strain/Indicator: TA97, Metabolic Activation: RAT, LIVER, S-9, AROCLOR 1254 (10%), Method: PREINCUBATION): inactive; negative
- mutagenic call (Test System: AMES SALMONELLA TYPHIMURIUM, Strain/Indicator: TA97, Metabolic Activation: RAT, LIVER, S-9, AROCLOR 1254 (30%), Method: PREINCUBATION): inactive; negative
- mutagenic call [6]: inactive; negative
- mutagenic call (Test System: AMES SALMONELLA TYPHIMURIUM, Strain/Indicator: TA98, Metabolic Activation: HAMSTER, LIVER, S-9, AROCLOR 1254 (30%), Method: PREINCUBATION): inactive; negative
- mutagenic call [1]: inactive; negative
- mutagenic call (Test System: AMES SALMONELLA TYPHIMURIUM, Strain/Indicator: TA98, Metabolic Activation: RAT LIVER S-9 PCB, Method: PREINCUBATION): inactive; negative
- mutagenic call [7]: inactive; negative
- mutagenic call (Test System: AMES SALMONELLA TYPHIMURIUM, Strain/Indicator: TA98, Metabolic Activation: RAT, LIVER, S-9, AROCLOR 1254 (30%), Method: PREINCUBATION): inactive; negative
- mutagenic call [8]: inactive; negative
- mutagenic call (Test System: AMES SALMONELLA TYPHIMURIUM, Strain/Indicator: TA100, Metabolic Activation: HAMSTER, LIVER, S-9, AROCLOR 1254 (30%), Method: PREINCUBATION): inactive; negative
- mutagenic call [2]: inactive; negative
- mutagenic call (Test System: AMES SALMONELLA TYPHIMURIUM, Strain/Indicator: TA100, Metabolic Activation: RAT LIVER S-9, PCB, Method: PREINCUBATION): inactive; negative
- mutagenic call [9]: inactive; negative
- mutagenic call (Test System: AMES SALMONELLA TYPHIMURIUM, Strain/Indicator: TA100, Metabolic Activation: RAT, LIVER, S-9, AROCLOR 1254 (30%), Method: PREINCUBATION): inactive; negative
- mutagenic call (Test System: AMES SALMONELLA TYPHIMURIUM, Strain/Indicator: TA104, Metabolic Activation: HAMSTER, LIVER, S-9, AROCLOR 1254 (10%), Method: PREINCUBATION): inactive; negative
- mutagenic call (Test System: AMES SALMONELLA TYPHIMURIUM, Strain/Indicator: TA104, Metabolic Activation: HAMSTER, LIVER, S-9, AROCLOR 1254 (30%), Method: PREINCUBATION): inactive; negative
- mutagenic call (Test System: AMES SALMONELLA TYPHIMURIUM, Strain/Indicator: TA104, Metabolic Activation: NONE, Method: PREINCUBATION): inactive; negative
- mutagenic call (Test System: AMES SALMONELLA TYPHIMURIUM, Strain/Indicator: TA104, Metabolic Activation: RAT LIVER S-9, PCB, Method: PREINCUBATION): inactive; negative
- mutagenic call (Test System: AMES SALMONELLA TYPHIMURIUM, Strain/Indicator: TA104, Metabolic Activation: RAT, LIVER, S-9, AROCLOR 1254 (10%), Method: PREINCUBATION): inactive; negative
- mutagenic call (Test System: AMES SALMONELLA TYPHIMURIUM, Strain/Indicator: TA104, Metabolic Activation: RAT, LIVER, S-9, AROCLOR 1254 (30%), Method: PREINCUBATION): inactive; negative
- mutagenic call [10]: inactive; negative
- mutagenic call (Test System: AMES SALMONELLA TYPHIMURIUM, Strain/Indicator: TA1535, Metabolic Activation: HAMSTER, LIVER, S-9, AROCLOR 1254 (30%), Method: PREINCUBATION): inactive; negative
- mutagenic call [3]: inactive; negative
- mutagenic call [11]: inactive; negative
- mutagenic call (Test System: AMES SALMONELLA TYPHIMURIUM, Strain/Indicator: TA1535, Metabolic Activation: RAT, LIVER, S-9, AROCLOR 1254 (30%), Method: PREINCUBATION): inactive; negative
- mutagenic call [5]: inactive; negative
- mutagenic call (Test System: E.COLI, Strain/Indicator: WP2 UVRA, Metabolic Activation: RAT LIVER S-9, PCB, Method: PREINCUBATION): inactive; negative

Structure (SMILES): CCc1c2ccccc2cc2ccc3ccccc3c12
- mutagenic call (Test System: AMES SALMONELLA TYPHIMURIUM, Strain/Indicator: TA98, Method: STANDARD PLATE): inactive; negative
- mutagenic call (Test System: AMES SALMONELLA TYPHIMURIUM, Strain/Indicator: TA100, Metabolic Activation: RAT, LIVER, S-9, PHENOBARBITAL, Method: STANDARD PLATE): inactive; negative
- mutagenic call (Test System: AMES SALMONELLA TYPHIMURIUM, Strain/Indicator: TA100, Method: STANDARD PLATE): inactive; negative
